Measured values as given in patent publication US9908848B2, “Amide derivatives of lactam based N-acylethanolamine acid amidase (NAAA) inhibitors” (The Regents of the University of California, priority 2013, dated 2018).

Key:
r-NAAA = molecular target: T1, r-NAAA (Rattus norvegicus, UniProt Q5KTC7); experiment: UPLC/MS r-NAAA assay; format: biochemical; details: rat lung lysosomal NAAA preparation
T1 construct: Lysosomal NAAA protein preparation was obtained by homogenizing male Sprague-Dawley rat lungs; tissue Charles River; host or cells: male Sprague-Dawley rat lung, soluble lysosomal fraction
T1 sequence (Q5KTC7 34-362): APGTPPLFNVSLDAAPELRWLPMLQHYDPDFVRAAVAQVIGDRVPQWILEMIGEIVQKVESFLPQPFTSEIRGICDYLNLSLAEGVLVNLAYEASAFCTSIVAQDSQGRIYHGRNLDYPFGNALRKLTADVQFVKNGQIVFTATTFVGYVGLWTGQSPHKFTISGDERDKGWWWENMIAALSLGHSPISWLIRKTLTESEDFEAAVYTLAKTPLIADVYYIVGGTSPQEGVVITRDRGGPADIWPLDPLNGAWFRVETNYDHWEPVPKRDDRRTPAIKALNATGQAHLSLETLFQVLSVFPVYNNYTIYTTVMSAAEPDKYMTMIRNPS
Description: Lysosomal NAAA protein preparation was obtained by homogenizing male Sprague-Dawley rat lungs (Charles River) in 20 mM Tris-HCl buffer pH 7.4 containing 0.32M sucrose. Samples were centrifuged at 800×g for 15 min at 4° C. Supernatants were centrifuged at 12,000×g for 30 min at 4° C. Pellets were then resuspended in PBS pH 7.4 and subjected to a freeze/thaw cycle at −80° C. The suspension was finally centrifuged at 105,000 g for 1 h at 4° C. The supernatant was used in enzymatic assays.
NAAA preparations were pre-incubated with various concentrations of test compounds or vehicle control in 100 mM NaH2PO4/Citrate buffer, 1% Triton-X, 3 mM DTT (pH 4.5) for 30 min at 37° C. Samples were incubated with heptadecenoylethanolamide (50 μM, Avanti Polar Lipids) at 37° C. for 30 min. The reaction was terminated by addition of cold methanol containing heptadecanoic acid (NuCheck Prep) as internal standard. Samples were analyzed by UPLC/MS (Acquity, Waters). Heptadecenoic and heptadecanoic acids were eluted on an Acquity UPLC BEH C18 column (50 mm length, 2.1 mm i.d., 1.7 μm pore size, Waters) isocratically at 0.5 mL/min for 1.5 min with a solvent mixture of 95% methanol and 5% H2O, both containing 0.25% Acetic Acid and 5.0 mM ammonium acetate. The column temperature was 40° C. Electrospray ionization was in the negative mode, capillary voltage was 0.5 kV, cone voltage was […], desolvation temperature was 500° C. N2 was used as drying gas at a flow rate of 1000 L/hour and a temperature of 500° C. The [M−H]^− ion was monitored in the selected-ion monitoring mode (m/z values: heptadecenoic acid 267.37, heptadecanoic acid 269.37). Calibration curves were generated using commercial heptadecenoic acid (NuCheck Prep) Inhibition of NAAA activity was calculated as reduction of heptadecenoic acid in the samples compared to vehicle controls. IC50 values were calculated by non-linear regression analysis of log [concentration]/inhibition curves using GraphPad Prism 5 (GraphPad Software Inc., CA—USA) applying a standard slope curve fitting.

[1] = test system: carrageenan-induced paw edema and heat hyperalgesia; experiment: Carrageenan-induced inflammation (paw edema, heat hyperalgesia); format: in vivo; details: mice, intraperitoneal, 10-100 mg/kg

IC50 (r-NAAA)	Structure (SMILES)	paw edema ([1]; FIG. 1 A)	heat hyperalgesia ([1]; FIG. 1 B)
240 nM	CCCCCCCCC(=O)N[C@H]1CNC1=O [Example 3, N-[(3S)-2-Oxoazetidin-3-yl]-nonanamide]	reduced	reduced
2100 nM	O=C(CCCCCCc1ccccc1)N[C@H]1CNC1=O [Example 7, 7-Phenyl-N-[(3S)-2-Oxoazetidin-3-yl]-heptanamide]	–	–
